Data taken from patent US6737383B1, “Herbicidal oxadiazolidines” (priority 1999, dated 2004).

What was measured:
rape = assay: Test B pre/postemergence rape; format: in vivo, Brassica napus; settings: for Rape plant response rating (0 to 10 scale): 0 is no effect
In short: (§1)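 Response is a visual 0-to-10 score relative to untreated plants, where 0 means no effect and 10 means complete control, taken twelve to sixteen days after application. Treatments went onto soil at planting and onto foliage of 1- to 4-leaf plants, using a surfactant-containing non-phytotoxic solvent.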

velvetleaf = assay: Test B pre/postemergence velvetleaf; format: in vivo, Abutilon theophrasti; settings: for Velvetleaf plant response rating (0 to 10 scale): 0 is no effect
In short: as §1

wheat = assay: Test B pre/postemergence wheat; format: in vivo, Triticum aestivum; settings: for Wheat plant response rating (0 to 10 scale): 0 is no effect
In short: as §1

bamyardgrass = assay: Test B flood test barnyardgrass; format: in vivo, Echinochloa crus-galli
In short: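 Read-out is a visual response score from 0 (no effect) to 10 (complete control), assigned by comparison with untreated controls. Treatment was applied at the 2-leaf stage, and plants stayed in the greenhouse for twelve to sixteen days before scoring.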

winter wheat [1] = assay: Test E winter wheat; format: in vivo, Triticum aestivum; settings: Postemergence
In short: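 Greenhouse test: compounds in non-phytotoxic solvent with surfactant; for postemergence, sprayed on plants at 1- to 4-leaf stage grown in 60:40 sandy loam/potting mix. Injury rated visually against untreated controls after about 21 to 28 days.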

blackgrass = assay: Test E blackgrass; format: in vivo, Alopecurus myosuroides; settings: Preemergence
green foxtail = assay: Test E green foxtail; format: in vivo, Setaria viridis; settings: Preemergence
Italian ryegrass = assay: Test E Italian ryegrass; format: in vivo, Lolium multiflorum; settings: Preemergence
winter wheat [2] = assay: Test E winter wheat; format: in vivo, Triticum aestivum; settings: Preemergence
wild oat = assay: Test E wild oat; format: in vivo, Avena fatua; settings: Preemergence; for Plant response rating, Wild oat: 0 to 100 scale where 0 is no effect and 100 is complete control
winter barley = assay: Test E winter barley; format: in vivo, Hordeum vulgare; settings: Preemergence
[3] = Postemergence, Rate 62 g/ha, scale 0 to 10, 0 is no effect, 10 is complete control
[4] = Postemergence, Rate 250 g/ha, scale 0 to 10, 0 no effect, 10 complete control
[5] = Preemergence, Rate 62 g/ha, scale 0 to 10 (0 no effect, 10 complete control)
[6] = Preemergence, Rate 125 g/ha, scale 0 to 10 (0 no effect, 10 complete control)
[7] = Preemergence, Rate 250 g/ha, scale of 0 to 10 where 0 is no effect and 10 is complete control
[8] = Preemergence, Rate 500 g/ha, scale 0 (no effect) to 10 (complete control)
[9] = Rate 125 g/ha, Postemergence, scale 0 to 10, 0 no effect, 10 complete control
[10] = Rate 500 g/ha, Postemergence, scale 0 to 10, 0 no effect, 10 complete control
[11] = Rate 250 g/ha, headed Pre-emergence (flood test species), scale 0 to 10 (0 no effect, 10 complete control)
[12] = Rate 500 g/ha, headed Pre-emergence (flood test species), scale 0 to 10 (0 no effect, 10 complete control)
[13] = Rate 500 g/ha, listed under Postemergence (flood test species), scale 0 to 10, 0 no effect, 10 complete control
[14] = Rate 1000 g/ha, Pre-emergence (as headed), scale 0 to 10
[15] = Rate 2000 g/ha, Pre-emergence (as headed), scale 0 to 10, 0 no effect, 10 complete control
[16] = Rate 250 g/ha, 0 to 100 scale (0 no effect, 100 complete control)
[17] = Rate 1000 g/ha, 0 to 100 scale, 0 is no effect and 100 is complete control
[18] = Rate 500 g/ha, 0 to 100 scale, 0 no effect, 100 complete control
[19] = Rate 500 g/ha, 0 to 100 scale where 0 is no effect and 100 is complete control
[20] = Rate 1000 g/ha, 0 to 100 scale where 0 is no effect and 100 is complete control
[21] = Postemergence, Rate 125 g/ha, scale of 0 to 10 where 0 is no effect and 10 is complete control
[22] = Preemergence, Rate 125 g/ha, 10 is complete control
[23] = Preemergence, Rate 250 g/ha, scale 0 to 10, 0 is no effect, 10 is complete control
[24] = Preemergence, Rate 500 g/ha, scale 0 to 10 (0 no effect, 10 complete control)
[25] = Rate 62 g/ha, Postemergence, scale of 0 to 10 where 0 is no effect and 10 is complete control
[26] = Rate 250 g/ha, Postemergence, scale 0 to 10, 0 is no effect, 10 is complete control
[27] = Rate 250 g/ha, Postemergence (flood test), scale 0 to 10, 0 is no effect, 10 is complete control
[28] = Rate 500 g/ha, Postemergence, scale 0 to 10

CC(C)N(C(=O)n1oc(=O)n(Cc2cccs2)c1=O)c1ccc(F)cc1F [Compound 86]
Rape plant response rating (rape; [3]): 0 | Rape plant response rating (rape; [4]): 2 | Rape plant response rating (rape; [5]): 0 | Plant response rating, Rape (rape; [6]): 0 | Plant response rating, Rape (rape; [7]): 0 | Rape plant response rating (rape; [8]): 4 | Rape plant response rating (rape; [9]): 0 | Rape plant response rating (rape; [10]): 4 | Velvetleaf plant response rating (velvetleaf; [3]): 0 | Velvetleaf plant response rating (velvetleaf; [4]): 0 | Velvetleaf plant response rating (velvetleaf; [5]): 0 | Plant response rating, Velvetleaf (velvetleaf; [6]): 0 | Plant response rating, Velvetleaf (velvetleaf; [7]): 3 | Velvetleaf plant response rating (velvetleaf; [8]): 5 | Velvetleaf plant response rating (velvetleaf; [9]): 0 | Velvetleaf plant response rating (velvetleaf; [10]): 2 | Wheat plant response rating (wheat; [3]): 0 | Wheat plant response rating (wheat; [4]): 0 | Wheat plant response rating (wheat; [5]): 0 | Plant response rating, Wheat (wheat; [6]): 0 | Plant response rating, Wheat (wheat; [7]): 0 | Wheat plant response rating (wheat; [8]): 0 | Wheat plant response rating (wheat; [9]): 0 | Wheat plant response rating (wheat; [10]): 0 | Barnyardgrass plant response rating (bamyardgrass; [3]): 0 | Barnyardgrass plant response rating (bamyardgrass; Rate 125 g/ha, Postemergence section (flood test species), scale 0 to 10, 0 no effect, 10 complete control): 0 | Barnyardgrass plant response rating (bamyardgrass; [11]): 0 | Plant response rating, Barnyardgrass (bamyardgrass; [12]): 0 | Barnyardgrass plant response rating (bamyardgrass; [13]): 0 | Barnyardgrass plant response rating (bamyardgrass; [14]): 0 | Barnyardgrass plant response rating (bamyardgrass; [15]): 0 | Barnyardgrass plant response rating (bamyardgrass; flood test, listed under Postemergence, Rate 250 g/ha, scale 0 to 10, 0 no effect, 10 complete control): 0 | Plant response rating, Wheat (winter) (winter wheat [1]; [16]): 55 | Plant response rating, Wheat (winter) (winter wheat [1]; [17]): 60 | Plant response rating, Wheat (winter) (winter wheat [1]; [18]): 70 | Plant response rating, Blackgrass (blackgrass; Rate 250 g/ha, 0 to 100 scale): 60 | Plant response rating, Blackgrass (blackgrass; [19]): 55 | Plant response rating, Blackgrass (blackgrass; [20]): 65 | Plant response rating, Green foxtail (green foxtail; Rate 250 g/ha, 0 to 100 scale): 40 | Plant response rating, Green foxtail (green foxtail; [19]): 55 | Plant response rating, Green foxtail (green foxtail; [20]): 100 | Plant response rating, I. Ryegrass (Italian ryegrass; Rate 250 g/ha, 0 to 100 scale): 30 | Plant response rating, I. Ryegrass (Italian ryegrass; [19]): 50 | Plant response rating, I. Ryegrass (Italian ryegrass; [20]): 60 | Plant response rating, Wheat (winter) (winter wheat [2]; Rate 250 g/ha, 0 to 100 scale): 60 | Plant response rating, Wheat (winter) (winter wheat [2]; [19]): 40 | Plant response rating, Wheat (winter) (winter wheat [2]; [20]): 65 | Plant response rating, Wild oat (wild oat; Rate 500 g/ha): 60 | Plant response rating, Wild oat (wild oat; Rate 1000 g/ha): 70 | Plant response rating, Barley (winter) (winter barley; Rate 250 g/ha, 0 to 100 scale): 70 | Plant response rating, Barley (winter) (winter barley; [19]): 80 | Plant response rating, Barley (winter) (winter barley; [20]): 70

CC(C)N(C(=O)n1oc(=O)n(-c2cnn(C)c2)c1=O)c1ccccc1 [Compound 123]
Rape plant response rating (rape; [21]): 0 | Rape plant response rating (rape; [5]): 0 | Rape plant response rating (0 to 10 scale) (rape; [22]): 0 | Rape plant response rating (rape; [23]): 0 | Rape plant response rating (rape; [24]): 0 | Rape plant response rating (rape; [25]): 0 | Plant response rating, Rape (rape; [26]): 0 | Rape plant response rating (rape; [10]): 2 | Velvetleaf plant response rating (velvetleaf; [21]): 0 | Velvetleaf plant response rating (velvetleaf; [5]): 0 | Velvetleaf plant response rating (0 to 10 scale) (velvetleaf; [22]): 0 | Velvetleaf plant response rating (velvetleaf; [23]): 3 | Velvetleaf plant response rating (velvetleaf; [24]): 6 | Velvetleaf plant response rating (velvetleaf; [25]): 0 | Plant response rating, Velvetleaf (velvetleaf; [26]): 0 | Wheat plant response rating (wheat; [21]): 1 | Wheat plant response rating (wheat; [5]): 0 | Wheat plant response rating (0 to 10 scale) (wheat; [22]): 0 | Wheat plant response rating (wheat; [23]): 5 | Wheat plant response rating (wheat; [24]): 7 | Wheat plant response rating (wheat; [25]): 0 | Plant response rating, Wheat (wheat; [26]): 1 | Wheat plant response rating (wheat; [10]): 4 | Barnyardgrass plant response rating (bamyardgrass; Postemergence (flood test species), Rate 125 g/ha, scale of 0 to 10 where 0 is no effect and 10 is complete control): 0 | Barnyardgrass plant response rating (bamyardgrass; [3]): 0 | Plant response rating, Barnyardgrass (bamyardgrass; [27]): 0 | Barnyardgrass plant response rating (bamyardgrass; [11]): 0 | Plant response rating, Barnyardgrass (bamyardgrass; [12]): 0 | Barnyardgrass plant response rating (bamyardgrass; [13]): 0 | Barnyardgrass plant response rating (bamyardgrass; [14]): 0 | Barnyardgrass plant response rating (bamyardgrass; [15]): 0 | Plant response rating, Wheat (winter) (winter wheat [1]; [16]): 55 | Plant response rating, Wheat (winter) (winter wheat [1]; [17]): 65 | Plant response rating, Blackgrass (blackgrass; Rate 250 g/ha, 0 to 100 scale): 30 | Plant response rating, Blackgrass (blackgrass; [20]): 65 | Plant response rating, Green foxtail (green foxtail; Rate 250 g/ha, 0 to 100 scale): 20 | Plant response rating, Green foxtail (green foxtail; [20]): 40 | Plant response rating, I. Ryegrass (Italian ryegrass; Rate 250 g/ha, 0 to 100 scale): 40 | Plant response rating, I. Ryegrass (Italian ryegrass; [20]): 50 | Plant response rating, Wheat (winter) (winter wheat [2]; Rate 250 g/ha, 0 to 100 scale): 10 | Plant response rating, Wheat (winter) (winter wheat [2]; [20]): 20 | Plant response rating, Wild oat (wild oat; Rate 1000 g/ha): 55 | Plant response rating, Barley (winter) (winter barley; Rate 250 g/ha, 0 to 100 scale): 30 | Plant response rating, Barley (winter) (winter barley; [20]): 50

Cc1nsc(C)c1-n1c(=O)on(C(=O)N(c2ccc(F)cc2)C(C)C)c1=O [Compound 157]
Rape plant response rating (rape; [21]): 0 | Rape plant response rating (rape; [5]): 0 | Rape plant response rating (0 to 10 scale) (rape; [22]): 0 | Rape plant response rating (rape; [23]): 0 | Rape plant response rating (rape; [24]): 0 | Rape plant response rating (rape; [25]): 0 | Plant response rating, Rape (rape; [26]): 0 | Rape plant response rating (rape; [28]): 0 | Velvetleaf plant response rating (velvetleaf; [5]): 0 | Velvetleaf plant response rating (0 to 10 scale) (velvetleaf; [22]): 0 | Velvetleaf plant response rating (velvetleaf; [23]): 0 | Velvetleaf plant response rating (velvetleaf; [24]): 0 | Plant response rating, Velvetleaf (velvetleaf; [26]): 0 | Velvetleaf plant response rating (velvetleaf; [28]): 0 | Wheat plant response rating (wheat; [5]): 0 | Wheat plant response rating (0 to 10 scale) (wheat; [22]): 0 | Wheat plant response rating (wheat; [23]): 0 | Wheat plant response rating (wheat; [24]): 0 | Plant response rating, Wheat (wheat; [26]): 0 | Wheat plant response rating (wheat; [28]): 0 | Barnyardgrass plant response rating (bamyardgrass; Postemergence, Rate 1000 g/ha, scale 0 to 10 (0 no effect, 10 complete control)): 0 | Plant response rating, Barnyardgrass (bamyardgrass; [27]): 0 | Barnyardgrass plant response rating (bamyardgrass; Rate 500 g/ha, listed under Postemergence (flood test species), scale 0 to 10): 0 | Barnyardgrass plant response rating (bamyardgrass; Rate 2000 g/ha, Postemergence, scale 0 to 10): 0 | Plant response rating, Wheat (winter) (winter wheat [1]; [17]): 40 | Plant response rating, Wheat (winter) (winter wheat [1]; [18]): 30 | Wheat (winter) plant response rating (winter wheat [1]; Rate 250 g/ha, 0 to 100 scale where 0 is no effect and 100 is complete control): 20 | Blackgrass plant response rating (0 to 100 scale) (blackgrass; Rate 250 g/ha): 20 | Plant response rating, Blackgrass (blackgrass; [19]): 40 | Plant response rating, Blackgrass (blackgrass; [20]): 50 | Green foxtail plant response rating (0 to 100 scale) (green foxtail; Rate 250 g/ha): 30 | Plant response rating, Green foxtail (green foxtail; [19]): 40 | Plant response rating, Green foxtail (green foxtail; [20]): 50 | I. Ryegrass plant response rating (0 to 100 scale) (Italian ryegrass; Rate 250 g/ha): 20 | Plant response rating, I. Ryegrass (Italian ryegrass; [19]): 30 | Plant response rating, I. Ryegrass (Italian ryegrass; [20]): 50 | Wheat (winter) plant response rating (0 to 100 scale) (winter wheat [2]; Rate 250 g/ha): 20 | Plant response rating, Wheat (winter) (winter wheat [2]; [19]): 30 | Plant response rating, Wheat (winter) (winter wheat [2]; [20]): 40 | Wild oat plant response rating (0 to 100 scale) (wild oat; Rate 250 g/ha): 50 | Plant response rating, Wild oat (wild oat; Rate 500 g/ha): 30 | Plant response rating, Wild oat (wild oat; Rate 1000 g/ha): 50 | Barley (winter) plant response rating (0 to 100 scale) (winter barley; Rate 250 g/ha): 0 | Plant response rating, Barley (winter) (winter barley; [19]): 10 | Plant response rating, Barley (winter) (winter barley; [20]): 30
